# Paper PMC4204849, “Lifespan Based Pharmacokinetic-Pharmacodynamic Model of Tumor Growth Inhibition by Anticancer Therapeutics” (PLoS ONE, 2014)
# Marks after values point to notes of the source that are not given here.
# Assays:
# MOLM-16 tumor cell = assay: Tumor growth inhibition by AZD1208 in xenograft, lifespan TGI model (non-cycle-specific, Emax); assay type: in vivo, mice
# Procedure: (§1) Data for this case study was provided by AstraZeneca. For the purpose of this case study we will set time according to when the first dose of AZD1208 was administered, which we count as day 1. We began with a compartmental PK analysis after a single oral administration of AZD1208 at 3, 10 and 30 mg/kg and found it well described using a one-compartment PK model with first order absorption as shown in Figure 9A.
# After establishing the PK model, we fit the TGI data using the lifespan TGI model. Since AZD1208 is a pan-Pim kinase inhibitor that promotes apoptosis at any stages of cell cycle, the data were analyzed using the non-cycle-specific model. […] In order to adapt the lifespan TGI model to account for only exponential growth we simply set the tumor threshold, wth, to a very large value well beyond the observed values of tumor size. Another unique feature of this dataset is the inclusion of saturating doses. To accommodate the dose ranges we replaced the drug potency constant, k2, in eq. 18 with the Emax model. The process of fitting was the same as for the previous studies, however, in this study the control data were very sparse and the doubling time, T, could not be estimated. In order to proceed with the analysis we set T = 3 days based on the doubling time reported by the commercial vendor of the MOLM-16 tumor cell used in the study, which was similar to the doubling reported the original study when the cells were initially collected. […] The remaining parameters were estimated with high precision and are well within biologically feasible ranges (see Table 6).
# [1] = Pharmacokinetic study of AZD1208, single oral administration, one-compartment model; assay type: in vivo, mice; conditions: single oral 3, 10, 30 mg/kg
# Procedure: For pharmacokinetic study of AZ968, CD1 mice were given single i.p. injection of AZ968 at 10, 20 or 30 mg/kg with 3 mice per dose group. Blood samples were collected via cardiac puncture. Total plasma concentrations of AZ968 were determined by LC/MS/MS method. Same procedure was used for the pharmacokinetic study of AZD1208, except AZD1208 was administered orally (p.o.) at 3, 10 or 30 mg/kg doses as outlined in the original study.
# as §1
# [2] = parameters: method as in PMID 14871843; conditions: two-compartment model, parameter fixed, cited from earlier work
# [3] = mouse, in vivo, iv, 30 mg/kg
# Description: (§2) Data used in Case Study 1 was obtained from mouse xenograft study reported by Simeoni and colleague. […] Data from the study was digitized using Graph Digitizer 2.0 (Nick's Production).
# [4] = test system: tumors derived from the HCT116 human colon carcinoma cell line; assay: Tumor growth inhibition by paclitaxel in xenograft mice, lifespan TGI model with cycle-specific drug effect; assay type: in vivo; conditions: for TA (duration of apoptosis): 30 mg/kg i.v. every 4 days from day 8, grid search, then fixed, data digitized from ref 11; for Emax (maximum effect): fixed to 1 due to lack of escalating doses
# Description: as §2
structure (smiles),measurement,setting,value
N[C@@H]1CCCN(c2c(/C=C3\SC(=O)NC3=O)cccc2-c2ccccc2)C1 [AZD1208],TA (duration of apoptosis),"MOLM-16 tumor cell; 0.3, 1, 3, 10, 30 mg/kg orally, parameter was fixed",1.92 ^a days
same,Emax,MOLM-16 tumor cell; Emax model replacing k2 in non-cycle-specific model,0.159
same,EC50,"MOLM-16 tumor cell; plasma concentration, Emax model, non-cycle-specific model",182 ng/mL
same,V/F,[1],4.86 L/kg
same,"elimination rate constant, kel",[1],same value as ka
same,ka,[1],5.52 day⁻¹
CC(=O)O[C@H]1C(=O)[C@@]2(C)[C@H]([C@H](OC(=O)c3ccccc3)[C@]3(O)C[C@H](OC(=O)[C@H](O)[C@@H](NC(=O)c4ccccc4)c4ccccc4)C(C)=C1C3(C)C)[C@]1(OC(C)=O)CO[C@@H]1C[C@@H]2O [paclitaxel],V,[2]; i.v. paclitaxel,0.81 L/kg
same,k12,[2],0.006 h⁻¹
same,k21,[2],0.0838 h⁻¹
same,kel,[2],0.868 h⁻¹
same,peak plasma concentration,[3],37040 ng/mL
same,TA (duration of apoptosis),[4],0.536 days
same,TA (duration of apoptosis),[4]; listed as Paclitaxel,0.536 ^a days
same,Emax (maximum effect),[4],1
same,Emax (maximum effect),[4]; listed as Paclitaxel,1 ^a
